Drawing on patent publication US20100331305A1, “OXO-HETEROCYCLE FUSED PYRIMIDINE COMPOUNDS, COMPOSITIONS AND METHODS OF USE” (Genentech, Inc., priority 2009, published 2010), this text covers Ki and EC50 for 23 compounds.

pEC50, pKi: −log10 of the molar value.

The pKi is the negative decadic logarithm of the Ki, by convention in mol/L. A word on the pEC50: it is the negative decadic logarithm of the EC50, by convention in mol/L. Read a low pEC50 as a large EC50.

The target in assay [1] is mTOR enzyme (mTOR(1360-2549)+GBL) (Homo sapiens, UniProt P42345). The assay is described as follows: In vitro mTOR kinase assay (TR-FRET). It counts as biochemical. The note with it: 0.25 nM mTOR+GBL, 8 uM ATP; values tied to compounds by order of Table 1; 'x or y' = two alternative values for separated diastereomers of unassigned stereochemistry; read-out: activity level (Ki) in the mTOR kinase assay. In short, it runs like this:
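Compounds were tested in 10-point dose curves from 10 uM top final concentration. The reaction was stopped with 2 nM Tb-anti-p4E-BP1 (T37/T46) antibody plus 10 mM EDTA for 30 minutes, and phospho-4E-BP1 was detected by TR-FRET. Ki apparent was fitted with the Morrison ATP-competitive tight-binding equation.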
(Time-resolved FRET reads energy transfer from a long-lived donor to a nearby acceptor.)

The next assay concerns PC3 cells. The assay is described as follows: In vitro cell proliferation assay. The note with it: values tied to compounds by order of Table 1. In kind it is cell-based, human. The protocol: c. In Vitro Cell Proliferation Assay Efficacy of Formula I compounds were measured by a cell proliferation assay employing the following protocol: 1. An aliquot of 20 μl of cell culture containing about 10^3 cells (PC3 or MDAMB361.1) in medium was deposited in each well of a 384-well, opaque-walled plate. 2. Control wells were prepared containing medium and without cells; Cells were allowed to settle overnight. 3. The compound was added to the experimental wells and incubated for 3 days. 4. The plates were equilibrated to room temperature for approximately 30 minutes. 5. A volume of CellTiter-Glo Reagent equal to the volume of cell culture medium present in each well was added. […] The contents were mixed for 2 minutes on an orbital shaker to induce cell lysis. 7. The plate was incubated at room temperature for 20 minutes to stabilize the luminescence signal. 8. Luminescence was recorded and reported in graphs as RLU=relative luminescence units. Alternatively, cells were seeded at optimal density in a 96 well plate and incubated for 4 days in the presence of test compound. Alamar BlueTM was subsequently added to the assay medium, and cells were incubated for 6 h before reading at 544 nm excitation, 590 nm emission. EC50 values were calculated using a sigmoidal dose response curve fit.

The mark [2] stands for this setting: Homo sapiens, PC-3, with PC3 cells.

mTOR enzyme (mTOR(1360-2549)+GBL), sequence (P42345 1360-2549, species assumed): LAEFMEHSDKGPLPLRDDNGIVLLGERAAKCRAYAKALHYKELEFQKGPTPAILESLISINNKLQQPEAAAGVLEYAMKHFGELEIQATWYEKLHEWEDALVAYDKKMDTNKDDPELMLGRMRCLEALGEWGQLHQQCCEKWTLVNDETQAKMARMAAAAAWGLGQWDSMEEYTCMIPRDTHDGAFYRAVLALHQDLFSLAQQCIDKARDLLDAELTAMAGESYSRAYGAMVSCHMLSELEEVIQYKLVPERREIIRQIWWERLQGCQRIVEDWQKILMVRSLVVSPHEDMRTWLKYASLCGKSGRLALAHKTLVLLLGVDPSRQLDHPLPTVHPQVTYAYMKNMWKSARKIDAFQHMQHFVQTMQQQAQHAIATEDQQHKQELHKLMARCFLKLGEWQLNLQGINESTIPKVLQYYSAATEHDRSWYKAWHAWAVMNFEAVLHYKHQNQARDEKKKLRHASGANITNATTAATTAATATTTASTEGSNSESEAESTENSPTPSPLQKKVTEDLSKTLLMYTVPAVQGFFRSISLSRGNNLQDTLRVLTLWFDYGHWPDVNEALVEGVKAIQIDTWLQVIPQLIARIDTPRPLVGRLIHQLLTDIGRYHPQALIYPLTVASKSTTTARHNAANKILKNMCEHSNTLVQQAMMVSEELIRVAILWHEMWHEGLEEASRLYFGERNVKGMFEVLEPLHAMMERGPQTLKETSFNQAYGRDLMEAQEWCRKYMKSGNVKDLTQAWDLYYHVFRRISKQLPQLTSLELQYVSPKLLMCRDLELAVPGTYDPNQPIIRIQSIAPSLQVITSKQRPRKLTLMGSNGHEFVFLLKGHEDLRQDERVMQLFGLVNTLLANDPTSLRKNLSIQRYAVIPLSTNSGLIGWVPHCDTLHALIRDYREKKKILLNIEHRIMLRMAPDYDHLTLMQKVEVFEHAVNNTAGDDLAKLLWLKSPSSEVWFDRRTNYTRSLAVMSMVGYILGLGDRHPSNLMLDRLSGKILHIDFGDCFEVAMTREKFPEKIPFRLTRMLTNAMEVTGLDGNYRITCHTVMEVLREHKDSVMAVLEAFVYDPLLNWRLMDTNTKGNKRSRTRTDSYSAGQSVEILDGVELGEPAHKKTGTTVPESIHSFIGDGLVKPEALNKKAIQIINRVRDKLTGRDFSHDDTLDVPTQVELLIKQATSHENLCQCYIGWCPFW
mTOR enzyme (mTOR(1360-2549)+GBL), sequence (Q9BVC4 whole entry partner, species assumed): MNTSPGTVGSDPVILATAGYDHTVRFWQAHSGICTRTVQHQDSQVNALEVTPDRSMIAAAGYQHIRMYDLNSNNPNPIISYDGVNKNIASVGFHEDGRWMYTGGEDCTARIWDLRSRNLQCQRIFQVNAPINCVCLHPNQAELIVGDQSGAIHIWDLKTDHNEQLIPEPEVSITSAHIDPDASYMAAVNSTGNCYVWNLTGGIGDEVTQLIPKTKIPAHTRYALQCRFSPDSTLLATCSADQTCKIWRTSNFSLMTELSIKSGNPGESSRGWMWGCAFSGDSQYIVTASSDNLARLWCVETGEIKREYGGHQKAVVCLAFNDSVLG

With `C[C@H]1COCCN1c1nc(-c2ccc(NC(=O)NC3COC3)cc2)nc2c1CCC1(CC1)O2` [Example 51, (S)-1-(4-(4′-(3-methylmorpholino)-5′,6′-dihydrospiro[cyclopropane-1,7′-pyrano[2,3-d]pyrimidine]-2′-yl)phenyl)-3-(oxetan-3-yl)urea], in assay [1], the pKi is 9.00. In the assay with PC3 cells (setting [2]), this compound showed a pEC50 of 7.11.
Take `C[C@H]1COCCN1c1nc(-c2ccc(NC(=O)Nc3ccn(C)n3)cc2)nc2c1CCC1(CC1)O2` [Example 52, (S)-1-(1-methyl-1H-pyrazol-3-yl)-3-(4-(4′-(3-methylmorpholino)-5′,6′-dihydrospiro[cyclopropane-1,7′-pyrano[2,3-d]pyrimidine]-2′-yl)phenyl)urea]: the pKi in assay [1] was 9.00. Further, the pEC50 in the assay with PC3 cells (setting [2]) is 6.76.
On the same counts, the results for `Cc1coc(NC(=O)Nc2ccc(-c3nc4c(c(N5CCOC[C@@H]5C)n3)CCC3(CC3)O4)cc2)n1` [Example 53, (S)-1-(4-(4′-(3-methylmorpholino)-5′,6′-dihydrospiro[cyclopropane-1,7′-pyrano[2,3-d]pyrimidine]-2′-yl)phenyl)-3-(4-methyloxazol-2-yl)urea] are 9.00 and 6.63.
For `C[C@H]1COCCN1c1nc(-c2ccc(Nc3cccc(=O)[nH]3)cc2)nc2c1CCC1(CC1)O2` [Example 54, (S)-6-(4-(4′-(3-methylmorpholino)-5′,6′-dihydrospiro[cyclopropane-1,7′-pyrano[2,3-d]pyrimidine]-2′-yl)phenylamino)pyridin-2(1H)-one], the pKi in assay [1] was 9.00. The same compound had a pEC50 in the assay with PC3 cells (setting [2]) of 7.40.
On to `C[C@H]1COCCN1c1nc(-c2ccc(Nc3nccc(=O)[nH]3)cc2)nc2c1CCC1(CC1)O2` [Example 55, (S)-2-(4-(4′-(3-methylmorpholino)-5′,6′-dihydrospiro[cyclopropane-1,7′-pyrano[2,3-d]pyrimidine]-2′-yl)phenylamino)pyrimidin-4(3H)-one], for which the negative-log Ki (pKi) in assay [1] is 9.70. This compound showed a pEC50 in the assay on PC3 cells (setting [2]) of 7.82.
`CNC(=O)Nc1ccc(-c2nc3c(c(N4CCOC[C@@H]4C)n2)CCC2(CC2)O3)cc1` [Example 56, (S)-1-methyl-3-(4-(4′-(3-methylmorpholino)-5′,6′-dihydrospiro[cyclopropane-1,7′-pyrano[2,3-d]pyrimidine]-2′-yl)phenyl)urea]: the pKi in assay [1] is 9.00. The same compound gave a negative-log EC50 (pEC50) with PC3 cells (setting [2]) of 7.43.
The corresponding values for `C[C@H]1COCCN1c1nc(-c2ccc(NC(=O)NCCS(C)(=O)=O)cc2)nc2c1CCC1(CC1)O2` [Example 57, (S)-1-(4-(4′-(3-methylmorpholino)-5′,6′-dihydrospiro[cyclopropane-1,7′-pyrano[2,3-d]pyrimidine]-2′-yl)phenyl)-3-(2-(methylsulfonyl)ethyl)urea] are 8.30 and 6.23.
The corresponding values for `CNC(=O)Nc1ccc(-c2nc3c(c(N4CCOC[C@@H]4C)n2)COCC3)cc1` [Example 58, (S)-1-methyl-3-(4-(4-(3-methylmorpholino)-7,8-dihydro-5H-pyrano[4,3-d]pyrimidin-2-yl)phenyl)urea] are 8.15 and 6.76.
For the compound `C[C@H]1COCCN1c1nc(-c2ccc(NC(=O)NCCS(C)(=O)=O)cc2)nc2c1COCC2` [Example 59, (S)-1-(4-(4-(3-methylmorpholino)-7,8-dihydro-5H-pyrano[4,3-d]pyrimidin-2-yl)phenyl)-3-(2-(methylsulfonyl)ethyl)urea], the pKi in assay [1] was 7.34. In the assay with PC3 cells (setting [2]), this compound had a pEC50 of 5.40.
The corresponding values for `C[C@H]1COCCN1c1nc(-c2ccc(NC(=O)NCCO)cc2)nc2c1CCC1(CC1)O2` [Example 65, (S)-1-(2-hydroxyethyl)-3-(4-(4′-(3-methylmorpholino)-5′,6′-dihydrospiro[cyclopropane-1,7′-pyrano[2,3-d]pyrimidine]-2′-yl)phenyl)urea] are 9.40 and 7.72.
For `C[C@H]1COCCN1c1nc(-c2ccc(NC(=O)NCCC#N)cc2)nc2c1CCC1(CC1)O2` [Example 66, (S)-1-(2-cyanoethyl)-3-(4-(4′-(3-methylmorpholino)-5′,6′-dihydrospiro[cyclopropane-1,7′-pyrano[2,3-d]pyrimidine]-2′-yl)phenyl)urea], the pKi in assay [1] was 8.70. In addition, the negative-log EC50 (pEC50) with PC3 cells (setting [2]) was 7.00.
On the same counts, the results for `CONC(=O)Nc1ccc(-c2nc3c(c(N4CCOC[C@@H]4C)n2)CCC2(CC2)O3)cc1` [Example 67, (S)-1-methoxy-3-(4-(4′-(3-methylmorpholino)-5′,6′-dihydrospiro[cyclopropane-1,7′-pyrano[2,3-d]pyrimidine]-2′-yl)phenyl)urea] are 8.00 and 6.07.
On to `C[C@H]1COCCN1c1nc(-c2ccc(NC(=O)NC[C@H](O)CO)cc2)nc2c1CCC1(CC1)O2` [Example 68, 1-((S)-2,3-dihydroxypropyl)-3-(4-(4′-((S)-3-methylmorpholino)-5′,6′-dihydrospiro[cyclopropane-1,7′-pyrano[2,3-d]pyrimidine]-2′-yl)phenyl)urea], for which the pKi in assay [1] was 8.52. In the assay on PC3 cells (setting [2]), the pEC50 was 6.09.
In the case of `C[C@H]1COCCN1c1nc(-c2ccc(NC(=O)NC[C@@H](O)CO)cc2)nc2c1CCC1(CC1)O2` [Example 69, 1-((R)-2,3-dihydroxypropyl)-3-(4-(4′-((S)-3-methylmorpholino)-5′,6′-dihydrospiro[cyclopropane-1,7′-pyrano[2,3-d]pyrimidine]-2′-yl)phenyl)urea], the pKi in assay [1] is 8.70. The pEC50 with PC3 cells (setting [2]) is 5.92.
The corresponding values for `C[C@H]1COCCN1c1nc(-c2ccc(NC(=O)NC3(CO)CC3)cc2)nc2c1CCC1(CC1)O2` [Example 70, (S)-1-(1-(hydroxymethyl)cyclopropyl)-3-(4-(4′-(3-methylmorpholino)-5′,6′-dihydrospiro[cyclopropane-1,7′-pyrano[2,3-d]pyrimidine]-2′-yl)phenyl)urea] are 7.70 and 5.80.
In the case of `O=C(Nc1ccc(-c2nc3c(c(N4[C@@H]5CC[C@H]4COC5)n2)CCC2(CC2)O3)cc1)NC1COC1` [Example 71, 1-(4-(4′-((1R,5S)-3-oxa-8-azabicyclo[3.2.1]octan-8-yl)-5′,6′-dihydrospiro[cyclopropane-1,7′-pyrano[2,3-d]pyrimidine]-2′-yl)phenyl)-3-(oxetan-3-yl)urea], the pKi in assay [1] is 8.70. This compound also gave a pEC50 with PC3 cells (setting [2]) of 6.32.
In the case of `O=C(NCCO)Nc1ccc(-c2nc3c(c(N4[C@@H]5CC[C@H]4COC5)n2)CCC2(CC2)O3)cc1` [Example 72, 1-(4-(4′-((1R,5S)-3-oxa-8-azabicyclo[3.2.1]octan-8-yl)-5′,6′-dihydrospiro[cyclopropane-1,7′-pyrano[2,3-d]pyrimidine]-2′-yl)phenyl)-3-(2-hydroxyethyl)urea], the pKi in assay [1] is 9.00. In addition, the pEC50 with PC3 cells (setting [2]) was 6.76.
On the same counts, the results for `C=CC[C@]1(C)OCc2c(N3CCOCC3)nc(-c3ccc(NC(=O)NCC)cc3)nc21` [Example 73 eb (S), (S)-1-(4-(7-allyl-7-methyl-4-morpholino-5,7-dihydrofuro[3,4-d]pyrimidin-2-yl)phenyl)-3-ethylurea] are 8.70 and 7.42.
On the same counts, the results for `CCC[C@@]1(C)OCc2c(N3CCOCC3)nc(-c3ccc(NC(=O)NCC)cc3)nc21` [Example 73 ef (R), (R)-1-ethyl-3-(4-(7-methyl-4-morpholino-7-propyl-5,7-dihydrofuro[3,4-d]pyrimidin-2-yl)phenyl)urea] are 8.40 and 7.04.
On the same counts, the results for `CCC[C@]1(C)OCc2c(N3CCOCC3)nc(-c3ccc(NC(=O)NCC)cc3)nc21` [Example 73 ef (S), (S)-1-ethyl-3-(4-(7-methyl-4-morpholino-7-propyl-5,7-dihydrofuro[3,4-d]pyrimidin-2-yl)phenyl)urea] are 8.70 and 7.46.
In the case of `CCNC(=O)Nc1ccc(-c2nc(N3CCOC[C@@H]3C)c3c(n2)[C@](C)(CCN2CCOCC2)OC3)cc1` [Example 76 eo (S), 1-ethyl-3-(4-((S)-7-methyl-4-((S)-3-methylmorpholino)-7-(2-morpholinoethyl)-5,7-dihydrofuro[3,4-d]pyrimidin-2-yl)phenyl)urea], the pKi in assay [1] is 6.53. Besides, the pEC50 with PC3 cells (setting [2]) was 7.35.
Turning to `CCNC(=O)Nc1ccc(-c2nc(N3CCOC[C@@H]3C)c3c(n2)[C@@](C)(CCN(C)CC)OC3)cc1` [Example 78 eq (R), 1-ethyl-3-(4-((R)-7-(2-(ethyl(methyl)amino)ethyl)-7-methyl-4-((S)-3-methylmorpholino)-5,7-dihydrofuro[3,4-d]pyrimidin-2-yl)phenyl)urea], in assay [1], the pKi is 7.33. This compound showed a pEC50 with PC3 cells (with PC3 cells) of 6.79.
On the same counts, the results for `CCNC(=O)Nc1ccc(-c2nc(N3CCOC[C@@H]3C)c3c(n2)[C@](C)(CCN(C)CC)OC3)cc1` [Example 78 eq (S), 1-ethyl-3-(4-((S)-7-(2-(ethyl(methyl)amino)ethyl)-7-methyl-4-((S)-3-methylmorpholino)-5,7-dihydrofuro[3,4-d]pyrimidin-2-yl)phenyl)urea] are 7.68 and 5.89.
